Data on one compound can be found in patent publication US20070275936A1, “Formulations and Treatment Methods” (priority 1998, published 2007).

The subject of data set [1] is CD4+ memory T cell 1 (MT1) and memory T cell 2 (MT2) cells. As to the kind of experiment: MT1:MT2 memory T cell ratio in patients after 5 day i.m. BrEA. It is filed as in vivo, human. How it is done: In a separate clinical trial using 100 mg of BrEA delivered to patients once per day for 5 consecutive days by intramuscular injection, several patients were evaluated for changes in the ratio of CD4^+ memory T cell 1 cells (intracellular IFNγ^+ CD45RA^− CD62L^− CD11a^bright) or MT1 cells to memory T cell 2 cells (intracellular IL-4^+ CD45RA^− CD62L^+ CD11a^dim) or MT2 cells. MT1 cells mediate or facilitate Th1 immune responses and MT2 cells mediate or facilitate Th2 immune responses. An increase in the MT1:MT2 ratio indicates an enhanced Th1 immune response or immune status. See, e.g., D. K. Mitra et al., International Immunology 1999 11:1801-1810. […] The maximum observed increase was about 700% in one patient at 10 days after the last dose of BrEA was administered. The increase usually persisted for more than 10 days after the last dose of BrEA was administered.

Data set [2] can be described thus: Oral bioavailability of BrEA formulations in rats. It is filed as in vivo. How it is done:
In vivo experiments were conducted to determine the bioavailability of BrEA via oral administration using different formulations. BrEA was (1) solubilized in soya oil, vitamin E oil, a mixture of vitamin E and cremophore or (2) BrEA was micronized and combined with or without a surfactant. These formulations are described below. The formulations were administered orally to rats and BrEA levels were determined in the blood, liver, spleen, kidney, and the lymph nodes. In the studies using micronized BrEA, the brain was evaluated for drug uptake. Twenty-four hour urine and feces were collected when BrEA was solubilized in vitamin E and soya oils and vitamin E mixed with Cremophore. The data from these studies indicate that BrEA enters into the lymphatics but is eliminated rapidly from the other tissues. The amount of ^14C radioactivity recovered in the feces 24 hours after administration was 78 to 83%.
BrEA (5 mg in 1.0 mL of soya oil or vitamin E oil) supplemented with ^14C-labelled BrEA was administered intragastrically to rats. Solubilization of BrEA in the vitamin E or soya oil was facilitated with 50 μL ethanol. Animals (3/time point) were assayed at 1.5, 3, 5.5, and 24 hours after administration and the ^14C-radioactivity was measured in the blood, liver, spleen, kidney, lymph nodes and 24 hour feces and urine. […] The uptake is greater with soya oil than vitamin E oil in the blood, liver, and lymph nodes.
BrEA (5 mg in 1.0 mL of a vitamin E and cremophore) supplemented with ^14C-labelled BrEA was administered intragastrically to rats. Solubilization of BrEA in the vitamin E-cremophore mixture was facilitated by the adding 60 μL ethanol. Animals (4/time point) were sacrificed at 2, 3, 5.5, and 24 hours and ^14C-radioactivity was measured in the blood, liver, spleen, kidney, lymph nodes and 24 hour feces and urine. […] Judging from the values in plasma, liver and lymph nodes, it appears that drug uptake is slower compared with soy oil or vitamin E and its presence in the tissues is more persistent.
Rats, in groups of three males, were orally administered 1.0 mL of 0.9% NaCl containing 10 or 32 mg BrEA micronized with a surfactant, Synperonic PE/F 127 (2.5% wt/wt). Rats were examined at 1.5, 5 and 24 hours after administration. Blood, liver, spleen, kidney, lymph nodes, and brain were assayed for ^14C radioactivity. The levels of BrEA in the blood, in comparison to the experiments with BrEA in Vitamin E oil and soya, were higher, 0.3% at 1.5 hours, and increased after 5 hours to 0.8% and 0.9% of the 10 and 32 mg dose, respectively. Additionally, the values in the lymph nodes were similar to those measured at 1.5 hours and the levels were sustained at 5 hours (5.3 and 5.0%) and 24 hours (3.7 and 3.1%) for the 10 and 32 mg dose, respectively (refer to Table 6).
In a repeated dose experiment, rats were intragastrically administered 1.0 mL 0.9% NaCl containing 2 mg BrEA micronized with Synperonic PE/F 127 (2.5% wt/wt) every 6 to 16 hours. Rats (3/time point) were sacrificed at 40, 72, 84, 90 and 96 hours after the first administration. Blood, liver, spleen, kidney and lymph nodes were assayed for ^14C radioactivity.
Rats, in groups of three males, were orally administered 1.0 mL of 0.9% NaCl containing 2, 4 or 10 mg BrEA micronized without a surfactant. Rats were sacrificed at 1.5, 5 and 24 hours after administration and blood, liver, spleen, kidney, lymph nodes and brain were assayed for ^14C radioactivity. The concentration of BrEA micronized without a surfactant in the observed tissues was lower than BrEA plus a surfactant.

Setting [3] is: micronized with surfactant, 10 mg dose, 5 hours.
[4] abbreviates: micronized with surfactant, 32 mg dose, 5 hours.

As for `C[C@]12CC[C@H](O)C[C@@H]1CC[C@@H]1[C@@H]2CC[C@]2(C)C(=O)[C@H](Br)C[C@@H]12` [BrEA, 16α-bromo-3β-hydroxy-5α-androstane-17-one], the “tested patients showing a transient increase in the MT1:MT2 ratio” value in data set [1] (100 mg i.m. once per day for 5 consecutive days) was 7/7. For the same compound, the “maximum observed increase in the MT1:MT2 ratio” value in data set [1] (one patient, 10 days after the last dose) is recorded as “about 700%”. Also, the “levels of BrEA in the blood” value in data set [2] (BrEA micronized with Synperonic PE/F 127, 1.5 hours) is given as 0.3%; in data set [2] (setting [3]) it was 0.8%; in data set [2] (setting [4]) it was 0.9%. The “values in the lymph nodes” value in data set [2] (setting [3]) is 5.3%; in data set [2] (micronized with surfactant, 10 mg dose, 24 hours) it was 3.7%; in data set [2] (setting [4]), 5.0%; in data set [2] (micronized with surfactant, 32 mg dose, 24 hours), 3.1%.
